Numbers after ± are expanded uncertainties.
Settings: Crystal; DSC

Row | Triple point temperature | Structure (SMILES)
1 | 398.5 ± 3.1 K | NC(=O)c1cccnc1 [3-pyridinecarboxamide]
2 | 392.5 ± 3.1 K | O=C(O)c1ccccc1 [benzoic acid]

Reference: the NIST ThermoML archive (doi:10.1021/acs.jced.8b00560)
